The term mortality denotes the share of the test organisms that died.

Where two headings read alike, the source gives them in different places.

Type in all cases: in vivo
In series [1] the test system is Yellow Fever Mosquito (Aedes aegypti, AEDSAE). As to conditions: for YFM rating: Table ABC / ABC-DP rating; for YFM % Control (or Mortality) rating: about 1 day-old larvae, 4000 ppm master solution diluted with 90:10 water/acetone, 15 μL per well plus 220 μL larval mixture, 3 days. The procedure, abridged: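 Compounds from DMSO master plates (4000 ppm stock) diluted in 90:10 water/acetone, then dispensed into six replicate plates and infested with ~1-day-old Aedes aegypti larvae in liver-powder water. Held covered at room temperature for 3 days; each well scored for larval mortality and graded on a rating scale.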

Series [2] concerns Cabbage Looper (Trichoplusia ni, TRIPNI). Description: Bioassays on Cabbage Looper (CL), 128-well diet tray assay. The note with it: Trichoplusia ni; for mortality at 50 µg/cm2: 168 h, second instar larvae, 50 μg/cm^2 of test molecule on artificial diet, 25° C., five to seven days, average of eight wells, read-out: CL % Control (or Mortality) rating. A digest of the protocol:
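Diet tray, 2nd instar, 1–5 larvae/well; 50 μg/cm^2 compound surface-applied (acetone:water 90:10), dried; 8 wells/treatment; 25° C, 14:10 L:D, 5–7 d; % mortality, mean of 8 wells.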

The subject of series [3] is Beet Armyworm (Spodoptera exigua, LAPHEG). Description: Bioassays on Beet Armyworm (BAW), 128-well diet tray assay. The note with it: Spodoptera exigua; for mortality at 50 µg/cm2: 168 h, second instar larvae, 50 μg/cm^2 of test molecule on artificial diet, 25° C., five to seven days, average of eight wells, read-out: BAW % Control (or Mortality) rating. The procedure, abridged:
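One to five second-instar larvae per well on artificial diet surface-treated with 50 μg/cm^2 test molecule (applied in 90:10 acetone-water, dried), eight wells per compound. Trays held vented at 25° C., 14:10 light-dark for five to seven days; percent mortality averaged over the eight wells.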

Where [4] appears, read: Table ABC: Biological Results, species YFM.
[5] abbreviates: Table ABC: Biological Results, species CL, read-out: CL.
Setting [6] is: Table ABC: Biological Results, species BAW, read-out: BAW.
The mark [7] stands for this setting: Cabbage Looper, Table ABC / ABC-DP rating, read-out: CL rating.
Setting [8] is: Beet Armyworm, Table ABC / ABC-DP rating, read-out: BAW rating.
[9] abbreviates: Yellow Fever Mosquito, rating class.
[10] abbreviates: Cabbage Looper, rating class, read-out: CL.
Setting [11] is: Beet Armyworm, rating class, read-out: BAW.

On to `O=C(Nc1ccc(F)cc1F)c1cc(NC(=O)[C@H]2[C@@H](c3cc(F)cc(Br)c3F)C2(Cl)Cl)ccc1Cl` (relative stereo) [F1094, cis-5-(3-(3-Bromo-2,5-difluorophenyl)-2,2-dichlorocyclopropane-1-carboxamido)-2-chloro-N-(2,4-difluorophenyl)benzamide], for which the YFM entry in series [1] (setting [4]) was “A (80–100)”. For the same molecule, the pest or weed control at 50 µg/cm2 in series [2] (setting [5]) and in series [3] (setting [6]) was 50 to 100% each time.
On to `O=C(NNc1ncccc1Cl)c1cc(NC(=O)[C@H]2[C@H](c3cc(Cl)cc(Cl)c3)C2(Cl)Cl)ccc1Cl` (relative stereo) [F2505, trans-2,2-Dichloro-N-(4-chloro-3-(2-(3-chloropyridin-2-yl)hydrazine-1-carbonyl)phenyl)-3-(3,5-dichlorophenyl)cyclopropane-1-carboxamide], for which the YFM rating entry in series [1] (Yellow Fever Mosquito) is listed as “A (80–100)”. Moreover, the pest or weed control at 50 µg/cm2 in series [2] (setting [7]) and in series [3] (setting [8]) was 50 to 100% in each case.
On to `CCC(F)(F)CNC(=O)c1cc(NC(=O)[C@H]2[C@H](c3cc(Cl)cc(Cl)c3)C2(Cl)Cl)cc(F)c1Cl` (relative stereo) [F2088, trans-2-Chloro-5-(2,2-dichloro-3-(3,5-dichlorophenyl)cyclopropane-1-carboxamido)-N-(2,2-difluorobutyl)-3-fluorobenzamide], for which the YFM rating entry in series [1] (Yellow Fever Mosquito) is “B (More than 0 – Less than 80)”. In addition, the pest or weed control at 50 µg/cm2 in series [2] (setting [7]) and in series [3] (setting [8]) was 50 to 100% each time.
In the case of `O=C(Nc1ccc(F)c(NC(=O)C(F)F)c1F)c1cc(NC(=O)[C@H]2[C@H](c3cccc(I)c3)C2(Cl)Cl)ccc1Cl` (relative stereo) [F1281, trans-2-chloro-5-(2,2-dichloro-3-(3-iodophenyl)cyclopropane-1-carboxamido)-N-(3-(2,2-difluoroacetamido)-2,4-difluorophenyl)benzamide], the YFM result in series [1] (setting [4]) was “A (80–100)”. Besides, the pest or weed control at 50 µg/cm2 in series [2] (setting [5]) and in series [3] (setting [6]) was 50 to 100% each time.
With `O=C(CC(F)(F)F)Nc1c(F)ccc(NC(=O)c2cc(NC(=O)[C@H]3[C@H](c4cccc(C(F)(F)F)c4)C3(Cl)Cl)ccc2Cl)c1F` [F1738, 2-Chloro-5-((1R,3R)-2,2-dichloro-3-(3-(trifluoromethyl)phenyl)cyclopropane-1-carboxamido)-N-(2,4-difluoro-3-(3,3,3-trifluoropropanamido)phenyl)benzamide], the YFM entry in series [1] (setting [9]) is “A (80–100)”. The pest or weed control at 50 µg/cm2 in series [2] (setting [10]) and in series [3] (setting [11]) was 50 to 100% in each case.
Turning to `Cc1c(F)cc(NC(=O)[C@H]2[C@H](c3ccc(F)c(Cl)c3)C2(Cl)Cl)cc1C(=O)NCC(F)(F)C(F)(F)F` (relative stereo) [F2064, trans-5-(2,2-Dichloro-3-(3-chloro-4-fluorophenyl)cyclopropane-1-carboxamido)-3-fluoro-2-methyl-N-(2,2,3,3,3-pentafluoropropyl)benzamide], the YFM rating entry in series [1] (Yellow Fever Mosquito) is listed as “A (80–100)”. Also, the pest or weed control at 50 µg/cm2 in series [2] (setting [7]) and in series [3] (setting [8]) was 50 to 100% throughout.
Take `CC(=NNC(=O)c1cc(NC(=O)[C@H]2[C@H](c3cc(Cl)cc(Cl)c3)C2(Cl)Cl)ccc1Cl)c1ccccc1` (relative stereo) [F3005, trans-2,2-Dichloro-N-(4-chloro-3-(2-(1-phenylethylidene)hydrazine-1-carbonyl)phenyl)-3-(3,5-dichlorophenyl)cyclopropane-1-carboxamide]: the YFM rating result in series [1] (Yellow Fever Mosquito) was “A (80–100)”. Further, the “YFM % Control (or Mortality) rating” value in series [1] was “A (80–100)”. The mortality at 50 µg/cm2 in series [2] and in series [3] was 50 to 100% throughout. In addition, the pest or weed control at 50 µg/cm2 in series [2] (setting [7]) and in series [3] (setting [8]) was 50 to 100% throughout.
On to `N#CCC(=O)Nc1c(F)ccc(NC(=O)c2cc(NC(=O)[C@H]3[C@H](c4ccc(F)c(C(F)(F)F)c4)C3(Cl)Cl)ccc2Cl)c1F` [F1369, 2-Chloro-N-(3-(2-cyanoacetamido)-2,4-difluorophenyl)-5-((1R,3R)-2,2-dichloro-3-(4-fluoro-3-(trifluoromethyl)phenyl)cyclopropane-1-carboxamido)benzamide], for which, in series [1] (setting [4]), the YFM entry is on record as “A (80–100)”. Also, the pest or weed control at 50 µg/cm2 in series [2] (setting [5]) and in series [3] (setting [6]) was 50 to 100% throughout.
As for `C#CCN(C(=O)c1cc(NC(=O)[C@H]2[C@H](c3ccc(F)c(C(F)(F)F)c3)C2(Cl)Cl)ccc1Cl)c1ccc(F)c(N)c1F` (relative stereo) [F1114, trans-N-(3-Amino-2,4-difluorophenyl)-2-chloro-5-(2,2-dichloro-3-(4-fluoro-3-(trifluoromethyl)phenyl)cyclopropane-1-carboxamido)-N-(prop-2-yn-1-yl)benzamide], in series [1] (setting [4]), the YFM result is reported as “A (80–100)”. Moreover, the pest or weed control at 50 µg/cm2 in series [2] (setting [5]) and in series [3] (setting [6]) was 50 to 100% each time.
For the molecule `O=C(CCF)Nc1c(F)ccc(NC(=O)c2cc(NC(=O)[C@H]3[C@H](c4ccc(F)c(C(F)(F)F)c4)C3(Cl)Cl)ccc2Cl)c1F` [F1735, 2-Chloro-5-((1R,3R)-2,2-dichloro-3-(4-fluoro-3-(trifluoromethyl)phenyl)cyclopropane-1-carboxamido)-N-(2,4-difluoro-3-(3-fluoropropanamido)phenyl)benzamide], the YFM entry in series [1] (setting [9]) is “A (80–100)”. For the same molecule, the pest or weed control at 50 µg/cm2 in series [2] (setting [10]) and in series [3] (setting [11]) was 50 to 100% in each case.
Turning to `O=C(Nc1ccc(F)cc1F)c1cc(NC(=O)[C@H]2[C@H](c3cc(Cl)c(F)c(Cl)c3)C2(Cl)Cl)ccc1Cl` (relative stereo) [F1172, trans-2-Chloro-5-(2,2-dichloro-3-(3,5-dichloro-4-fluorophenyl)cyclopropane-1-carboxamido)-N-(2,4-difluorophenyl)benzamide], the YFM entry in series [1] (setting [4]) is “A (80–100)”. In addition, the pest or weed control at 50 µg/cm2 in series [2] (setting [5]) and in series [3] (setting [6]) was 50 to 100% each time.
Take `O=C(Nc1ccccc1)c1c(Cl)ccc(NC(=O)[C@H]2[C@H](c3ccc(F)c(Cl)c3)C2(Cl)Cl)c1Cl` (relative stereo) [F1104, trans-2,6-Dichloro-3-(2,2-dichloro-3-(3-chloro-4-fluorophenyl)cyclopropane-1-carboxamido)-N-phenylbenzamide]: in series [1] (setting [4]), the YFM entry is recorded as “A (80–100)”. The pest or weed control at 50 µg/cm2 in series [2] (setting [5]) and in series [3] (setting [6]) was 50 to 100% in each case.
For the molecule `Cc1c(NC(=O)c2cc(NC(=O)[C@H]3[C@H](c4ccc(F)c(C(F)(F)F)c4)C3(Cl)Cl)ccc2Cl)ccc(Br)c1N` [F1690, N-(3-Amino-4-bromo-2-methylphenyl)-2-chloro-5-((1R,3R)-2,2-dichloro-3-(4-fluoro-3-(trifluoromethyl)phenyl)cyclopropane-1-carboxamido)benzamide], the YFM result in series [1] (setting [9]) is recorded as “A (80–100)”. Besides, the pest or weed control at 50 µg/cm2 in series [2] (setting [10]) and in series [3] (setting [11]) was 50 to 100% each time.
In the case of `Cc1cc(N)ccc1NC(=O)c1cc(NC(=O)[C@H]2[C@H](c3ccc(Cl)c(Cl)c3)C2(Cl)Cl)ccc1Cl` (relative stereo) [DP1, trans-N-(4-amino-2-methylphenyl)-2-chloro-5-(2,2-dichloro-3-(3,4-dichlorophenyl)cyclopropane-1-carboxamido)benzamide], in series [1] (Yellow Fever Mosquito), the YFM rating entry is recorded as “A (80–100)”. Besides, in series [1], the “YFM % Control (or Mortality) rating” value is reported as “A (80–100)”. In addition, the mortality at 50 µg/cm2 in series [2] and in series [3] was 50 to 100% throughout. Moreover, the pest or weed control at 50 µg/cm2 in series [2] (setting [7]) and in series [3] (setting [8]) was 50 to 100% throughout.
Regarding `CC(=O)Nc1c(F)ccc(NC(=O)c2cc(NC(=O)[C@H]3[C@H](c4ccc(F)c(C(F)(F)F)c4)C3(Cl)Cl)ccc2Cl)c1Cl` [F1161, N-(3-Acetamido-2-chloro-4-fluorophenyl)-2-chloro-5-((1R,3R)-2,2-dichloro-3-(4-fluoro-3-(trifluoromethyl)phenyl)cyclopropane-1-carboxamido)benzamide], the YFM entry in series [1] (setting [4]) is listed as “A (80–100)”. Besides, the pest or weed control at 50 µg/cm2 in series [2] (setting [5]) and in series [3] (setting [6]) was 50 to 100% in each case.
Consider `O=C(Nc1ccc(F)cc1F)c1cc(NC(=O)[C@H]2[C@H](c3c(F)c(F)c(F)c(F)c3F)C2(Cl)Cl)ccc1Cl` (relative stereo) [F1009, trans-2-Chloro-5-(2,2-dichloro-3-(perfluorophenyl)cyclopropane-1-carboxamido)-N-(2,4-difluorophenyl)benzamide], for which the YFM result in series [1] (setting [4]) was “A (80–100)”. The pest or weed control at 50 µg/cm2 in series [2] (setting [5]) and in series [3] (setting [6]) was 50 to 100% in each case.
Turning to `O=C(Nc1ccc(F)cc1F)c1cc(NC(=O)[C@H]2[C@H](c3ccc(I)cc3)C2(Cl)Cl)ccc1Cl` (relative stereo) [F1087, trans-2-Chloro-5-(2,2-dichloro-3-(4-iodophenyl)cyclopropane-1-carboxamido)-N-(2,4-difluorophenyl)benzamide], the YFM result in series [1] (setting [4]) is “A (80–100)”. Further, the pest or weed control at 50 µg/cm2 in series [2] (setting [5]) and in series [3] (setting [6]) was 50 to 100% throughout.

For the origin of these results see US20250228239A1, “MOLECULES HAVING PESTICIDAL UTILITY, AND INTERMEDIATES, COMPOSITIONS, AND PROCESSES, RELATED THERETO” (priority 2024, published 2025).
